Results on 10 compounds are retold here after the Kinase Knowledgebase extract (Sharma et al. 2016).

Some targets named below: PIK3CG (human) (UniProt P48736); PIK3CD (Human) (UniProt O00329); PIK3CB (Human) (UniProt P42338).
Assay in all cases: Enzyme Assay

Chain of PIK3CB (Human) (P42338 whole entry, looked up): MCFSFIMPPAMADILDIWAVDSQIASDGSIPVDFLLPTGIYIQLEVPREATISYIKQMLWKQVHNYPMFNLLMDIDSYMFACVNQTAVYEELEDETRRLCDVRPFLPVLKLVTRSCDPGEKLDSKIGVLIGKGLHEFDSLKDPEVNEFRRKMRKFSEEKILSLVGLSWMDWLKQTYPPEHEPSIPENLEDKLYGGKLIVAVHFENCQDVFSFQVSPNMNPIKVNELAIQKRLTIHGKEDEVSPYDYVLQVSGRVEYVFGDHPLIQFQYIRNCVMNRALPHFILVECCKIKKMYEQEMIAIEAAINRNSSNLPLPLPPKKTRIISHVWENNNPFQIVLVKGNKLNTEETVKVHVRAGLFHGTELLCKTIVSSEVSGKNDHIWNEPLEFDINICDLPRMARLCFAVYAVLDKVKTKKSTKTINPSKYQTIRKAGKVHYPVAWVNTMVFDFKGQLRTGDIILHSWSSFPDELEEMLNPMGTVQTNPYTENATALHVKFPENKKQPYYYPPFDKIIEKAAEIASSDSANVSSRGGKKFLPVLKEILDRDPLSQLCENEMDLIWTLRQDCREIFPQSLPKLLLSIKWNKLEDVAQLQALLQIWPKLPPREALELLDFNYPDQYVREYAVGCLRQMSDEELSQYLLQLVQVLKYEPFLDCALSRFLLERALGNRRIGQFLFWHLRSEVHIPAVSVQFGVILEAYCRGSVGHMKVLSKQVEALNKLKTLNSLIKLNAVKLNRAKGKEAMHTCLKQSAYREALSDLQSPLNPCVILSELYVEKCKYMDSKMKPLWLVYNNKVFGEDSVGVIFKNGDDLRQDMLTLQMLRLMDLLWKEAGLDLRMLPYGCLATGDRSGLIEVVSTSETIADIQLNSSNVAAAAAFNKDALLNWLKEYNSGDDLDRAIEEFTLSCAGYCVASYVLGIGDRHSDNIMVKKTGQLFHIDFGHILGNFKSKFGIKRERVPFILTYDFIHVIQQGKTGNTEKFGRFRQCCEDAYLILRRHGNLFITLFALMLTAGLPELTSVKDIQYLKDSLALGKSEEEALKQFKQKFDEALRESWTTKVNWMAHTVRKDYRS
Chain of PIK3CD (Human) (O00329 whole entry, looked up): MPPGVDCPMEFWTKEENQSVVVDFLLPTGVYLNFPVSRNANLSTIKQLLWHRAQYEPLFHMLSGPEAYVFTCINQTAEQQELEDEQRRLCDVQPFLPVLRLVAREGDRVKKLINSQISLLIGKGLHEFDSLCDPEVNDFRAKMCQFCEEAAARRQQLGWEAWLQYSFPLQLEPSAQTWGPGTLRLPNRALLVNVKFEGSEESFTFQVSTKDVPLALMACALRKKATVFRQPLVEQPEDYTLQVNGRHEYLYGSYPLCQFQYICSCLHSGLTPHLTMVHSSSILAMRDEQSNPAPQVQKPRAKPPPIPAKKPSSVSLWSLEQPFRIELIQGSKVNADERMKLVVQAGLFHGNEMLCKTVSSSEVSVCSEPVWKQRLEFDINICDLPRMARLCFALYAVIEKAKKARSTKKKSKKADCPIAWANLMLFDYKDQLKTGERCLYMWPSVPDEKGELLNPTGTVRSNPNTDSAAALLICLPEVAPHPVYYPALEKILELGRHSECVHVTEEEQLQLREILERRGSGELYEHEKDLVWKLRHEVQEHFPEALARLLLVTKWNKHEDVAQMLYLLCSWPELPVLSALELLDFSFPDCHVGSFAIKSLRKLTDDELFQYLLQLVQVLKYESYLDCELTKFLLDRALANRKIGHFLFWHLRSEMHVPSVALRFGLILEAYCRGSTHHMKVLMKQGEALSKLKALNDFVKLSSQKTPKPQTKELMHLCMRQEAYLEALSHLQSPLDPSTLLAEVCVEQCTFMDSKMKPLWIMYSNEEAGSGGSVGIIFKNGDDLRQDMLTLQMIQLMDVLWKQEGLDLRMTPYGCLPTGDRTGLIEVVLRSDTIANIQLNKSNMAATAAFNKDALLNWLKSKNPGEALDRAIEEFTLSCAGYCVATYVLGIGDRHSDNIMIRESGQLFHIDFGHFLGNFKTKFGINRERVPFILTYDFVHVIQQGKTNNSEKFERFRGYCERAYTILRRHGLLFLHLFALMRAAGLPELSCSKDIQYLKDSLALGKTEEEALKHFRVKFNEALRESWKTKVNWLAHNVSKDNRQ
Chain of PIK3CG (human) (P48736 whole entry, looked up): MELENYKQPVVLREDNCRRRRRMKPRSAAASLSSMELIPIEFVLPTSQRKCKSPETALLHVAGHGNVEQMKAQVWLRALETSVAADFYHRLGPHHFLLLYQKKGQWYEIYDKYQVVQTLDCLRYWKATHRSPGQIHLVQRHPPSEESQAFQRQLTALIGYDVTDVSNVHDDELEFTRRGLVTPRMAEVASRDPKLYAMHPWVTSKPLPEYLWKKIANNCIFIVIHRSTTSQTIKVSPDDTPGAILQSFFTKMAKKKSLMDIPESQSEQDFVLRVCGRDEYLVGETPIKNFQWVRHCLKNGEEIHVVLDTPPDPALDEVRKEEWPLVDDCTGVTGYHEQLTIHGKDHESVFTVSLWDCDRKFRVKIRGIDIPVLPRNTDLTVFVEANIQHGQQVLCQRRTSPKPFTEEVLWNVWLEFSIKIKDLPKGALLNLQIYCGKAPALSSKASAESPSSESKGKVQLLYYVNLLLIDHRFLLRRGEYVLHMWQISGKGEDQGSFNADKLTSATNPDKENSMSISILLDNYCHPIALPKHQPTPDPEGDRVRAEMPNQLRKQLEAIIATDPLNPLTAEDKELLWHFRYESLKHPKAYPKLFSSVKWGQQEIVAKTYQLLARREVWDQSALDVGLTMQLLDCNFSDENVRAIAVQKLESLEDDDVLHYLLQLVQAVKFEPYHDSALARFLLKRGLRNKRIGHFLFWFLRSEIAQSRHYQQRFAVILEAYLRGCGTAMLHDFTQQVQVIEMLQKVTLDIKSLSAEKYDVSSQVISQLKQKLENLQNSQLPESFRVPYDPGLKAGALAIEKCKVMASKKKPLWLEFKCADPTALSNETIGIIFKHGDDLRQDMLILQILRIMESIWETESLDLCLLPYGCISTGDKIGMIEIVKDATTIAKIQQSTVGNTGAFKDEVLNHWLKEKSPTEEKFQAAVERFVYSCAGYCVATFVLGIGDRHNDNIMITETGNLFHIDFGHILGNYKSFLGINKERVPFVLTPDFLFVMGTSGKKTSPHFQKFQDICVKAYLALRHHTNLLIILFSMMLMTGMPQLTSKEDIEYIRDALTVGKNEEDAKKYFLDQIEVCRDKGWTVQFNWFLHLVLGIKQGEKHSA

Take `Nc1nc(N)c(Cl)c(N[C@H](c2nc3c(Cl)cc(F)cc3c(=O)n2-c2cc[nH]n2)C2CC2)n1`: at PIK3CG (human), the IC50 is > 10 µM.

`C[C@H](Nc1nc(N)nc(N)c1C#N)c1nc2ccc(Cl)cc2c(=O)n1-c1cc[nH]n1`: the 50% inhibitory concentration (IC50) against PIK3CG (human) is 9.3 µM; against PIK3CD (Human), 0.14 µM.

Compound `CC(C)[C@H](Nc1nc(N)nc(N)c1Cl)c1nc2cccc(Cl)c2c(=O)n1-c1cc[nH]n1` displayed an IC50 at PIK3CG (human) of 10 µM.

On to `Nc1nc(N)c(Cl)c(N[C@H](c2nc3cccc(Cl)c3c(=O)n2-c2cc[nH]n2)C2CCC2)n1`, for which the half-maximal inhibitory concentration (IC50) against PIK3CG (human) is > 10 µM.

As to `C[C@H](Nc1nc(N)nc(C(F)F)c1Cl)c1nc2cc(F)cc(F)c2c(=O)n1-c1cc[nH]n1`, on PIK3CB (Human), the 50% inhibitory concentration (IC50) was > 10 µM.

For the compound `Cc1c[nH]nc1-n1c([C@@H](NC2=NC(N)=NC3=NN=C(Br)C32)C2CC2)nc2cccc(Cl)c2c1=O` (stereo partly drawn), on PIK3CG (human), the IC50 is > 10 µM.

On to `CC(C)Cc1cc(-n2c([C@H](C)Nc3ncnc(N)c3C#N)nc3cccc(Cl)c3c2=O)n[nH]1`, for which the concentration for half-maximal inhibition (IC50) at PIK3CG (human) is > 10 µM.

`C[C@H](Nc1nc(N)nc(N)c1C#N)c1nc2c(C(F)F)cccc2c(=O)n1-c1cc[nH]n1`: the IC50 at PIK3CG (human) was > 10 µM; against PIK3CD (Human), 0.009 µM; at PIK3CB (Human), 0.004 µM.

At PIK3CD (Human), `CC[C@H](Nc1ncnc2[nH]cc(F)c12)c1nc2c(Cl)ccc(Cl)c2c(=O)n1-c1cc[nH]n1` returned a 50% inhibitory concentration (IC50) of 0.003 µM.

Take `C[C@H](Nc1nc(N)nc(C(F)F)c1Cl)c1nc2c(F)c(F)ccc2c(=O)n1-c1cc[nH]n1`: the IC50 at PIK3CB (Human) is > 10 µM.

One may read the IC50 as the concentration at which inhibition is half-maximal.
